Results from patent US20230255988A1 (CORNELL UNIVERSITY, priority 2020, published 2023).
Entries after “also recorded” stand apart in the source; their conditions may differ.

How the values were obtained:
Assay type in all cases: in vivo, human
[1] = system: amyloid positive patients with amnestic mild cognitive impairment (aMCI) or mild dementia due to AD; assay: Buschke Selective Reminding Test (SRT), 12-month trial; conditions: 12 months
Description: The trial duration per participant was twelve months. […] The Buschke Selective Reminding Test (SRT) is a standard diagnostic tool in the assessment of verbal memory. Several studies attest to its predictive value for dementia.

[2] = system: amyloid positive patients with amnestic mild cognitive impairment (aMCI) or mild dementia due to AD; assay: Neuropsychiatric Inventory (NPI), 12-month trial
Procedure: The trial duration per participant was twelve months. […] Neuropsychiatric Inventory (NPI). The NPI assesses a wide range of behaviors encountered in dementia patients to provide a means of distinguishing frequency and severity of behavioral changes. Ten behavioral and two neuro-vegetative domains are evaluated through an interview with the caregiver.

[3] = system: amyloid positive patients with amnestic mild cognitive impairment (aMCI) or mild dementia due to AD; assay: Safety profile / adverse events in 12-month trial
Description: The trial duration per participant was twelve months.
Pre-screening of 634 patients at the METS at the Burke Rehabilitation Hospital excluded all but 120 participants (FIG. 1). Only eighty-three of these patients were amyloid positive. Twelve declined to participate. Seventy-one of these participants agreed to be part of the trial, and were randomized to receive either placebo or benfotiamine. Eight subjects were prematurely discontinued from the trial prior to Month 12. Three participants were withdrawn due to non-compliance <80%; three withdrew consent due to unwillingness to complete study procedures; one participant was lost to follow-up and one was withdrawn by PI due to physical limitations. None of the participants randomized to the treatment group withdrew due to adverse reactions or adverse effects. […] After the trial completion and after the data were locked, one patient in the placebo group was determined to be on benfotiamine from another source and was excluded from the per-protocol analysis.

[4] = system: amyloid positive patients with amnestic mild cognitive impairment (aMCI) or mild dementia due to AD; assay: AD Assessment Scale-Cognitive Subscale (ADAS-Cog), 12-month randomized placebo-controlled trial
Description: ADAS-cog served as the primary endpoint. […] Assignment of patients. […] Using blocked, stratified randomization design, patients were assigned to the treatment or control group. […] Within this group, a separate randomization schedule was generated using the proc plan function in SAS statistics program for those with an MMSE greater than or less than or equal to 26 to balance their allocation patients to placebo or treatment groups. Using a block size of four for a total of seventy-six patients, 19 blocks were created to help ensure balanced recruitment into treatment and control groups within strata. The schedule was generated in advance by the statistician and provided to the blinded pharmacist in charge of executing the randomization. Two randomization worksheets stratified by MMSE were provided to the pharmacist, who randomized the patients. […] The patients were enrolled by the clinical study team and randomized by the pharmacist. The assignment to the treatment or placebo group was known only to the pharmacist and kept behind a triple lock. The patients received numbered bottles. The trial duration per participant was twelve months. […] AD Assessment Scale-Cognitive Subscale (ADAS-Cog) was the primary outcome measure. It indicates the severity of the most important symptoms of Alzheimer's disease. It consists of 11 tasks measuring the disturbances of memory, language, praxis, attention and other cognitive abilities (S. Balsis et al., Alzheimer's & Dementia, 8, 288-294, 2012; […] al., International Psychogeriatrics, 9, 123-138, 1997). The primary clinical outcome was ADAS-Cog, and secondary outcomes included the CDR score and fluorodeoxyglucose ([…]) imaging of the brain. AGE levels were an exploratory outcome. The primary analysis followed Intention-to-Treat (ITT) and the secondary analysis was per-protocol. The per-protocol analysis omitted one placebo participant who took benfotiamine from a commercial vendor. The ITT and per-protocol analysis are presented for the primary outcome ADAS-cog and the secondary measure CDR. For the other measures, only per-protocol analysis are presented. The primary analysis was done on the ITT data. The Last-Observation-Carry-Forward (LOCF) method was used to impute the missing values of ADAS total score and the secondary endpoints such as CDR as well for each time point. The primary analysis was done on ITT data which were imputed with LOCF method. Per-protocol analysis was done as a sensitivity analysis and as observational comparisons (F. J. Molnar et al., Canadian Medical Association Journal, 179, 751, 2008).

[5] = system: brain glucose utilization; assay: FDG PET imaging of glucose metabolism, regions of interest
Description: Image acquisition, processing, and measurement. FDG PET imaging of glucose metabolism was acquired at baseline and after 12 months of treatment. All scans were acquired on a Siemens MCT 64 PET/CT PET-CT scanner at CUIMC. Study participants were maintained in an awake, at rest state with eyes and ears open in dim lighting during tracer uptake. Forty minutes after injection of the tracer, the emission image was acquired in four contiguous 5-minute frames. Frames were aligned with SPM 12, averaged, and then spatially normalized to the MNI template using SPM12 (https://www.fil.ion.ucl.ac.uk/spm/software/spm12/), resulting in one image per participant for each time point. Average voxel values within 90 regions of interest (ROIs) in the Automated Anatomic Labeling (AAL) Atlas were computed. […] The paracentral lobule and cerebellum were included as reference regions given their relative preservation during AD progression.

With `C/C(=C(\CCOP(=O)(O)O)SC(=O)c1ccccc1)N(C=O)Cc1cnc(C)nc1N` [benfotiamine] the “Buschke SRT score and change in score versus placebo” value ([1]; p=0.177, change 0.315) was “no significant change”, the “Buschke SRT score course over time” value ([1]; placebo showed a downward trend) was “stable scores” and the “change in NPI, whole population” value ([2]; 12 months versus placebo) was “No differences”. The “NPI score in males” value ([2]; males, month 9 (0.014) and month 12 (p=0.035)) was “significantly reduced scores; also recorded: highly significant benefit in males”, the “adverse events related to benfotiamine” value ([3]; 2×300 mg benfotiamine per day, twelve months) was “No adverse events” and the “safety of administration in patients with aMCI and dementia due to AD” value ([3]; overall conclusion) was “safe”. For the same molecule, the “withdrawal due to adverse reactions or adverse effects” value ([3]; participants randomized to the treatment group) was “None”, the “Allergy, number of patients (%)” value ([3]; treatment n = 34, 12 months) was 0 (0%) and the “Anxiety, number of patients (%)” value ([3]; treatment n = 34, 12 months) was 5 (14%). The “Bruise, number of patients (%)” value ([3]; treatment n = 34, 12 months) was 2 (6%), the “Cold symptoms, number of patients (%)” value ([3]; treatment n = 34, 12 months) was 3 (8%) and the “Depression, number of patients (%)” value ([3]; treatment n = 34, 12 months) was 1 (3%). For the same molecule, the “Dizziness, number of patients (%)” value ([3]; treatment n = 34, 12 months) was 3 (8%), the “Fall, number of patients (%)” value ([3]; treatment n = 34, 12 months) was 6 (17%) and the “Gastrointestinal problem, number of patients (%)” value ([3]; treatment n = 34, 12 months) was 9 (26%). The “Head injury, number of patients (%)” value ([3]; treatment n = 34, 12 months) was 0 (0%), the “Heart arrhythmia, number of patients (%)” value ([3]; treatment n = 34, 12 months) was 1 (3%) and the “Pain, number of patients (%)” value ([3]; treatment n = 34, 12 months) was 5 (14%). The “Pneumonia, number of patients (%)” value ([3]; treatment n = 34, 12 months) was 0 (0%), the “Sprain, number of patients (%)” value ([3]; treatment n = 34, 12 months) was 0 (0%) and the “Stroke, number of patients (%)” value ([3]; treatment n = 34, 12 months) was 2 (6%). For the same molecule, the “Surgery, number of patients (%)” value ([3]; treatment n = 34, 12 months) was 1 (3%), the Total adverse events ([3]; treatment n = 34, 12 months, placebo 59) was 38 and the “ADAS-cog change from baseline at 12 months” value ([4]; ITT analysis, 2×300 mg per day, 12 months, placebo 3.26) was 1.39. The “ADAS-cog unadjusted change baseline to 12 months, difference versus placebo” value ([4]; ITT, mixed effect model p=0.071, GEE p=0.137, Wilcoxon p=0.098) was “favoring benfotiamine”, the “ADAS score change Mean (SD), baseline to month 12” value ([4]; Per-protocol, unadjusted, 2×300 mg per day, placebo 3.2 (5.66)) was 0.96 (5.41) and the “ADAS-cog effect modification by APOE ε4 allele carrier status” value ([4]; exploratory) was “no effect modification”. For the same molecule, the “ADAS-cog effect modification by sex” value ([4]; exploratory, not statistically significant) was “males might have been more responsive”, the “ADAS-cog response by baseline MMSE” value ([4]; post-hoc, MMSE>=26 p=0.027, MMSE<26 p=0.99) was “stronger response among those with a higher MMSE at baseline” and the “FDGPET Month_12 - Baseline change, Entorhinal_cortex Left” value ([5]; n = 34, 2×300 mg per day) was −0.02 (0.11). For the same molecule, the “FDGPET Month_12 - Baseline change, Entorhinal_cortex Right” value ([5]; n = 34, 2×300 mg per day) was −0.02 (0.10), the “FDGPET Month_12 - Baseline change, Frontal cortex Left” value ([5]; n = 34, 2×300 mg per day) was −0.03 (0.04) and the “FDGPET Month_12 - Baseline change, Frontal cortex Right” value ([5]; n = 34, 2×300 mg per day) was −0.03 (0.04). For the same molecule, the “FDGPET Month_12 - Baseline change, Hippocampus Left” value ([5]; n = 34, 2×300 mg per day) was −0.01 (0.04), the “FDGPET Month_12 - Baseline change, Hippocampus Right” value ([5]; n = 34, 2×300 mg per day) was −0.02 (0.04) and the “FDGPET Month_12 - Baseline change, Medial temporal Left” value ([5]; n = 34, 2×300 mg per day) was −0.03 (0.04). The “FDGPET Month_12 - Baseline change, Medial temporal Right” value ([5]; n = 34, 2×300 mg per day) was −0.03 (0.05), the “FDGPET Month_12 - Baseline change, Parietal Left” value ([5]; n = 34, 2×300 mg per day) was −0.02 (0.05) and the “FDGPET Month_12 - Baseline change, Parietal Right” value ([5]; n = 34, 2×300 mg per day) was −0.02 (0.04). The “FDGPET Month_12 - Baseline change, Percuneus Left” value ([5]; n = 34, 2×300 mg per day) was −0.03 (0.04), the “FDGPET Month_12 - Baseline change, Percuneus Right” value ([5]; n = 34, 2×300 mg per day) was −0.03 (0.04) and the “FDGPET Month_12 - Baseline change, Posterior cingulate Left” value ([5]; n = 34, 2×300 mg per day) was −0.02 (0.03). For the same molecule, the “FDGPET Month_12 - Baseline change, Posterior cingulate Right” value ([5]; n = 34, 2×300 mg per day) was −0.02 (0.03), the “FDGPET Month_12 - Baseline change, Prefrontal_cortex Left” value ([5]; n = 34, 2×300 mg per day) was −0.02 (0.04) and the “FDGPET Month_12 - Baseline change, Prefrontal_cortex Right” value ([5]; n = 34, 2×300 mg per day) was −0.03 (0.04). The “FDGPET Month_12 - Baseline change, Whole_brain” value ([5]; n = 34, 2×300 mg per day) was −0.01 (0.02) and the “FDGPET in pre-specified regions of interest, benfotiamine versus placebo” value ([5]; paracentral lobule and cerebellum as reference region) was “No significant differences”.
